Data from the NIST ThermoML archive (doi:10.1021/je4004965).
± gives the expanded uncertainty stated by the source.

Experiments:
[1] = 101.33 kPa, Liquid; for speed of sound: Pulse-echo method; for mass density: Vibrating tube method
[2] = molar heat capacity at constant pressure; conditions: 101.33 kPa, Liquid, Small sample (50 mg) DSC

SMILES | speed of sound ([1]; 293.15 K) [m/s] | mass density ([1]; 293.15 K) [kg/m3] | speed of sound ([1]; 298.15 K) [m/s] | mass density ([1]; 298.15 K) [kg/m3] | speed of sound ([1]; 303.15 K) [m/s] | mass density ([1]; 303.15 K) [kg/m3] | speed of sound ([1]; 308.15 K) [m/s] | mass density ([1]; 308.15 K) [kg/m3] | molar heat capacity at constant pressure ([2]; 293.15 K) [J/K/mol] | molar heat capacity at constant pressure ([2]; 298.15 K) [J/K/mol] | molar heat capacity at constant pressure ([2]; 303.15 K) [J/K/mol] | molar heat capacity at constant pressure ([2]; 308.15 K) [J/K/mol]
CCn1cc[n+](C)c1.F[B-](F)(F)F [1-ethyl-3-methylimidazolium tetrafluoroborate] | 1631.1 ± 2.2 | 1283.89 ± 1.7 | 1619.4 ± 2.1 | 1279.91 ± 1.7 | 1607.6 ± 2.1 | 1276.26 ± 1.7 | 1596.3 ± 2.1 | 1272.07 ± 1.7 | 303.73 ± 4.7 | 305.35 ± 4.7 | 306.16 ± 4.7 | 308.94 ± 4.8
Cc1ccccc1N [2-methylaniline] | 1622.2 ± 1.3 | 998.431 ± 1 | 1602.3 ± 1.3 | 994.358 ± 1 | 1577.7 ± 1.3 | 990.23 ± 1 | 1558.2 ± 1.3 | 986.064 ± 1 | 215.96 ± 3.4 | 217.16 ± 3.4 | 218.43 ± 3.4 | 219.52 ± 3.4
Cc1ccccn1 [2-methylpyridine] | 1400.5 ± 2.1 | 944.401 ± 1.2 | 1380.1 ± 2.1 | 939.802 ± 1.2 | 1361 ± 2.1 | 935.117 ± 1.2 | 1339.9 ± 2.1 | 930.414 ± 1.2 | 157.07 ± 2.4 | 158.86 ± 2.5 | 160.14 ± 2.5 | 160.66 ± 2.5
Cc1cccnc1 [3-methylpyridine] | 1445.9 ± 1.2 | 956.581 ± 1 | 1424 ± 1.2 | 952.002 ± 1 | 1404.1 ± 1.2 | 947.449 ± 1 | 1384 ± 1.2 | 942.831 ± 1 | 156.05 ± 2.4 | 158.75 ± 2.5 | 160.83 ± 2.5 | 160.96 ± 2.5
Cc1ccncc1 [4-methylpyridine] | 1451.1 ± 1.2 | 955.099 ± 1 | 1431.5 ± 1.2 | 950.179 ± 1 | 1410.7 ± 1.2 | 945.413 ± 1 | 1389.9 ± 1.2 | 940.821 ± 1 | 155.88 ± 2.4 | 158.52 ± 2.5 | 160.84 ± 2.5 | 160.83 ± 2.5
c1ccncc1 [pyridine] | 1442 ± 1.2 | 983.191 ± 1 | 1417.8 ± 1.2 | 978.249 ± 1 | 1398 ± 1.2 | 973.224 ± 1 | 1377.1 ± 1.2 | 968.166 ± 1 | 130.49 ± 2 | 131.74 ± 2 | 132.71 ± 2.1 | 133.82 ± 2.1
